Test: Assay Measuring Activity of Test Compounds on Viral Production from HepAD38 Cells: HepAD38 cells grown in a T-150 flask (Corning, cat #: 430825) with Growth Medium (DMEM/F12 (1:1) (Hyclone, cat #: SH30023.02), 1× Pen/Strep (Invitrogen, cat #: 15140-122), 10% FBS (Tissue Culture Biologics, cat #: 101), 250 μg/mL G418 (Alfa Aesar, cat #: J62671), 1 μg/mL Tetracycline (Teknova, cat #: T3320)) were detached with 0.25% trypsin-EDTA to (Invitrogen, cat #: 25200-056). Tetracycline-free treatment medium (15 mL DMEM/F12 (1:1) 1× Pen/step, with 2% FBS, Tet-system approved (Clontech, cat #: 631106) were then added to mix, transferred into a 50 ml conical tube (Falcon, cat #: 21008-918,) and spun at 1300 rpm for 5 min. Pelleted cells were then re-suspended/washed with 50 mL of 1×DPBS (Invitrogen, cat #: 14190-136) 2 times and 50 mL treatment medium twice. HepAD38 cells were then re-suspended with 10 mL of treatment medium, syringed and counted. Wells of 96-well clear bottom TC plate (Corning, cat #: 3904,) were seeded at 50,000 cells/well in 180 μL of treatment medium, and 20 μL of either 10% DMSO (Sigma, cat #: D4540) as controls or a 10× solution of test compounds in 10% DMSO in treatment media was added for a final compound concentration starting at 10 μM, and plates were incubated in 5% CO2 incubator at 37° C. for 5 days.Subsequently viral load production was assayed by quantitative PCR (qPCR) of the HBV core sequence. PCR reaction mixture containing forward primers HBV-f 5′-CTGTGCCTTGGGTGGCTTT-3′ (IDT DNA), Reverse primers HBV-r 5′-[…]-3′ (IDT DNA), Fluorescent TaqMan™ Probes HBV-probe 5′-FAM/AGCTCCAAA/ZEN/[…]/3IABkFQ-3′ (IDT DNA), 10 μL/well of PerfeCTa® qPCR ToughMix® (Quanta Biosciences, Cat #: 95114-05K), and 6 μL/well of DEPC water (Alfa Aesar, cat #: J62087) was prepared. […] of supernatant was added to 16 μL of the reaction mixture in a qPCR plate (Applied Biosytems, Cat #: 4309849), sealed with a film (Applied Biosystems, Cat #: 4311971), centrifuged for a few seconds, and subsequently run on an Applied Biosystems VIIA7. The PCR mixture was incubated at 45° C. for 5 min, then 95° C. for 10 min, followed by 40 cycles of 10 seconds at 95° C. and 20 seconds at 60° C. Viral load was quantified against known HBV DNA standards by using ViiA™ 7 Software. Viral load in the supernatant from wells with treated cells were compared against viral load in supernatant from DMSO control wells (>3 per plate). Cell viability assay was performed with CellTiter-Glo Luminescent Cell Viability Assay (Promega, cat #: G7573) with modification. Mixed appropriate amount of CellTiter-Glo (CTG) 1×DPBS in a 1:1 ratio, added 100 uL of the mixture to each well followed completely removal of all supernatant in each well without touching cell surface. Incubated the plate at room temperature for 10 min on an orbital shaker, and then read the plate with a plate reader (TECAN M1000 or Envision).
Settings: HePAD38

| Structure (SMILES) | EC50 |
| --- | --- |
| COc1cc(C(=O)NCCS(C)(=O)=O)ccc1[C@H]1CC[C@@H](c2nn(C)c(N)c2C(=O)Nc2ccc(F)c(Cl)c2)C1 | in the range around 0.3 µM |
| COc1cc(C(O)NCCN)ccc1C1CCC(c2nn(C)c(N)c2C(=O)Nc2ccc(F)c(Cl)c2)C1 (configuration not stated) | in the range around 0.3 µM |
| Cn1cc(C(=O)Nc2ccc(F)c(Cl)c2)c(C2CC3CC(=O)CC3C2)n1 (configuration not stated) | in the range around 5.25 µM |
| COc1cc(-c2nccn2C)ccc1[C@H]1CC[C@@H](c2nn(C)c(N)c2C(=O)Nc2ccc(F)c(Cl)c2)C1 | in the range around 0.3 µM |
| COc1cc(-c2c[nH]cn2)ccc1[C@H]1CC[C@@H](c2nn(C)c(N)c2C(=O)Nc2ccc(F)c(Cl)c2)C1 | in the range around 0.3 µM |
| COc1cc(-c2cnn(C)c2)ccc1C1CCC(c2nn(C)c(N)c2C(=O)Nc2ccc(F)c(Cl)c2)C1 (configuration not stated) | in the range around 0.3 µM |
| COc1cc(-c2nccn2C)ccc1[C@@H]1CC[C@@H](c2nn(C)c(N)c2C(=O)Nc2ccc(F)c(Cl)c2)C1 | < 0.1 µM |
| COc1cc(-c2c[nH]cn2)ccc1[C@@H]1CC[C@@H](c2nn(C)c(N)c2C(=O)Nc2ccc(F)c(Cl)c2)C1 | < 0.1 µM |
| COc1cc(-c2cn(C)cn2)ccc1[C@@H]1CC[C@@H](c2nn(C)c(N)c2C(=O)Nc2ccc(F)c(Cl)c2)C1 | < 0.1 µM |
| COc1cc(-c2cscn2)ccc1C1CCC(c2nn(C)c(N)c2C(=O)Nc2ccc(F)c(Cl)c2)C1 (configuration not stated) | < 0.1 µM |
| Cn1cc(C(=O)Nc2ccc(F)c(Cl)c2)c(C2CC3CC(O)(CS(C)(=O)=O)CC3C2)n1 (configuration not stated) | in the range around 5.25 µM |
| COc1cc(-c2nccs2)ccc1C1CCC(c2nn(C)c(N)c2C(=O)Nc2ccc(F)c(Cl)c2)C1 (configuration not stated) | in the range around 5.25 µM |

From ChEMBL document CHEMBL5729557, “5-membered heteroaryl carboxamide compounds for treatment of HBV” (2023)
